{
  "source": "patent US20100234393A1",
  "about": "“USE OF A VASOPEPTIDASE INHIBITOR FOR THE TREATMENT OF PULMONARY ARTERIAL HYPERTENSION” (priority 2006, published 2010)",
  "key": {"[1]": {"system": "PAH model in rats receiving an injection of monocrotaline", "test": "Long-term efficacy of fasidotril in the monocrotaline PAH model in rats", "format": "in vivo, rats of the Wistar type", "protocol": "The long-term efficacy of fasidotril was studied on a recognised PAH model in rats receiving an injection of the toxic alkaloid, monocrotaline (Rosenberg and Rabinovitch, Am. J. Physiol., 1988, 255, 484). After a single injection of the toxin (60 mg/kg, s.c.), the pulmonary arterial endothelium is wounded and the animals develop pulmonary arterial smooth muscle hypertrophy with severe pulmonary hypertension and right ventricular hypertrophy.\nA group of 50 rats of the Wistar type weighing approximately 300 g was used, of which 10 were used as controls while 40 received a dose of 60 mg/kg of monocrotaline s.c. The latter were divided into two groups of 20 animals: the first group was fed with a standard laboratory feed while the second group was fed with a feed containing fasidotril at a concentration such that the rats received a dose of approximately 200 mg/kg/day."}, "[2]": {"system": "PAH model (monocrotaline, Wistar rats)", "settings": "literature: Schermuly et al., Amer. J. Resp. Crit. Care Med. 2004, 169, 39; cited from earlier work"}},
  "data": [
    {"smiles": "CC(=O)SC[C@@H](Cc1ccc2c(c1)OCO2)C(=O)N[C@@H](C)C(=O)OCc1ccccc1", "note": "[fasidotril, benzyl (S,S)-2-(2-acetylsulphanylmethyl-3-benzo[1,3]dioxol-5-ylpropionylamino)propionate]", "values": [
      {"measurement": "slowing down of the rate of development of the disease", "setting": "[1]; PAH model, treatment with fasidotril, conclusion from mortality and heart weight data", "result": "approximately a half"},
      {"measurement": "mortality", "setting": "[1]; after one month, monocrotaline 60 mg/kg s.c., fasidotril in feed approximately 200 mg/kg/day, \"monocrotaline only\" group 45%", "result": 20, "unit": "%"},
      {"measurement": "increase in the weight of the right ventricle (right heart hypertrophy)", "setting": "[1]; after one month, monocrotaline 60 mg/kg s.c., fasidotril in feed approximately 200 mg/kg/day, monocrotaline only +74%", "result": "+50%"},
      {"measurement": "increase in the weight of the right auricle (right heart hypertrophy)", "setting": "[1]; after one month, monocrotaline 60 mg/kg s.c., fasidotril in feed approximately 200 mg/kg/day, monocrotaline only +140%", "result": "+57%"}
    ]},
    {"smiles": "CCCc1nn(C)c2c(=O)[nH]c(-c3cc(S(=O)(=O)N4CCN(C)CC4)ccc3OCC)nc12", "note": "[sildenafil]", "values": [
      {"measurement": "activity in the PAH model", "setting": "[2]", "result": "active"}
    ]}
  ]
}
